Measured values reported in ChEMBL document CHEMBL2413004, “Synthesis and in vitro cytostatic activity of 1,2- and 1,3-diacylglycerophosphates of clofarabine” (Bioorg Med Chem, 2013).

Experiments:
Type in all cases: functional, cell-based
MCF7 = test: Cytostatic activity against human MCF7 cells after 48 hrs by MTT assay; conditions: MCF7, 48 h
HL-60 = test: Cytostatic activity against human HL60 cells after 48 hrs by MTT assay; conditions: HL-60, 48 h
A549 = test: Cytostatic activity against human A549 cells after 48 hrs by MTT assay; conditions: A549, 48 h
HeLa = test: Cytostatic activity against human HeLa cells after 48 hrs by MTT assay

IC50 (MCF7)	IC50 (HL-60)	IC50 (A549)	IC50 (HeLa)	Compound
30 µM	55 µM	90 µM	100 µM	CCCCCCCCCCCCCCCC(=O)OCC(COC(=O)CCCCCCCCCCCCCCC)OP(=O)(O)OC[C@H]1O[C@@H](n2cnc3c(N)nc(Cl)nc32)[C@@H](F)[C@@H]1O
40 µM	> 100 µM	> 100 µM	> 100 µM	CCCCCCCCCCCCCC(=O)OCC(COC(=O)CCCCCCCCCCCCC)OP(=O)(O)OC[C@H]1O[C@@H](n2cnc3c(N)nc(Cl)nc32)[C@@H](F)[C@@H]1O
> 100 µM	10 µM	> 100 µM	> 100 µM	CCCCCCCCCCCCCCCC(=O)OC[C@@H](COP(=O)(O)OC[C@H]1O[C@@H](n2cnc3c(N)nc(Cl)nc32)[C@@H](F)[C@@H]1O)OC(=O)CCCCCCCCCCCCCCC
40 µM	0.8 µM	> 100 µM	50 µM	CCCCCCCCCCCCCC(=O)OC[C@@H](COP(=O)(O)OC[C@H]1O[C@@H](n2cnc3c(N)nc(Cl)nc32)[C@@H](F)[C@@H]1O)OC(=O)CCCCCCCCCCCCC
50 µM	0.1 µM	8 µM	50 µM	Nc1nc(Cl)nc2c1ncn2[C@@H]1O[C@H](CO)[C@@H](O)[C@@H]1F [CLOFARABINE]
